In brackets after ≈: the same amount, converted by molar mass.
Tests used:
[1] = system: Human Influenza Virus A/CA/04/09 H1N1; test: organism not typed; type: cell-based; conditions: A/CA/04/09, MDCK, 72 h; mix as PL202:PL208
[2] = system: human influenza virus A/WS/33, H1N1; test: Plaque inhibition assay, influenza A/WS/33 on MDCK cell monolayer; type: cell-based; conditions: 0.05 mg/ml, read-out: inhibition of formation of lysis plaques
[3] = system: influenza strain A/WS/33 (H1N1); test: Mouse influenza infection model (preventive and curative arms); type: in vivo, CD-1 mice; conditions: curative arm, oral daily from day 0; Tamiflu 10, Nutracan 350 mg/kg
Procedure: Ginger, goldenrod and a combination thereof were assayed in a recognized animal model related to the prevention and treatment of the influenza virus (Cottey R, 2001). In this study, the ginger was assayed as a dry plant (rhizome) […] a CO2 extract. However, the relative quantity of the ginger dry plant used was equivalent to the ginger CO2 extract used in Example 1 (equivalent to the dry starting material). The ginger/goldenrod combination that was used also comprised blueberry dry powder. This formulation is named the Nutracan™ formulation and is described in Table II below.
In this model, CD-1 mice (10 females per group) were inoculated intranasally with the influenza strain A/WS/33 (H1N1) at 1×10^3 PFU as determined in a preliminary study (data not shown). […]
1) Seven groups of CD1 mice were randomized based on their weight (n=10). […] Mice were sacrificed when their general state (including abnormal behaviour, determined by a veterinarian) had deteriorated or they had lost more than 20% of their weight.

MDCK cells = conditions: no virus, 72 h, mix as PL202:PL208

Structure (SMILES)	IC50 [1] [µg/mL]	inhibition at 50 µg/mL [2] [%]	MDD (mean day of death) [3]	TC50 (MDCK cells) [µg/mL]	TC90 (MDCK cells) [µg/mL]
NC(=O)c1ncn([C@@H]2O[C@H](CO)[C@@H](O)[C@H]2O)n1 [Ribavirin]	5.26 (≈ 21.5 µM)	–	–	–	–
CCOC(=O)C1=C[C@@H](OC(CC)CC)[C@H](NC(C)=O)[C@@H](N)C1 [Tamiflu, Oseltamivir phosphate]	0.1	52	7.6	>10.3	>10.3

Source: patent US9205122B2, “Herbal composition comprising ginger and goldenrod for the treatment of cold and flu” (priority 2009, dated 2015)
